Experimental data as given in patent US11944626B2, “Small molecule inhibitors of ALDH and uses thereof” (The Regents of the University of Michigan, priority 2016, dated 2024).

Assays:
ALDH2 = molecular target: T1, ALDH2 (Homo sapiens, UniProt P05091); test: Inhibition of ALDH isoenzymes (NAD(P)H formation at 340 nm, purified recombinant enzyme); format: biochemical; design: key to ALDH2 inhibition at 20 μM (N.I.): N.I.: No inhibition at 20 μM; conditions: compound at 20 μM; for remaining activity at 20 µM: read-out: ALDH2 % Control at 20 μM;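 for all read-outs here: run at 25 °C, started by adding substrate after 2 min preincubation, with 100-200 nM ALDH2, 200 µM NAD+, 100 µM propionaldehyde, 1% DMSO in BES buffer pH 7.5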
T1 sequence (P05091 18-517): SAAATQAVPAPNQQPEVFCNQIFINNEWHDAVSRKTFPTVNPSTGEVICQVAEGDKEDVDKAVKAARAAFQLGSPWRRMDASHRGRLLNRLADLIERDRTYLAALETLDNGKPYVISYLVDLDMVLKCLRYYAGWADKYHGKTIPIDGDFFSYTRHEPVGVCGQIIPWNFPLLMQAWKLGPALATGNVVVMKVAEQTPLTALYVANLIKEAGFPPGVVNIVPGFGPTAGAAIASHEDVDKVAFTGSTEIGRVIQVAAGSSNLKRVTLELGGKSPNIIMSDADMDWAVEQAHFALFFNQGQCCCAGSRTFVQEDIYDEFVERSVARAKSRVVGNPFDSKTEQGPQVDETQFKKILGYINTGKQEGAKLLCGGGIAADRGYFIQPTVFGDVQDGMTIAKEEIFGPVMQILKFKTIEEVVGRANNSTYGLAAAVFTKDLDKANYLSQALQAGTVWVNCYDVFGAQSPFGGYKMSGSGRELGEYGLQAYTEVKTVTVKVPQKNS

OVSAHO = OVSAHO Cell Viability; format: cell-based; conditions: for OVSAHO Cell Viability (50 μM) % CD133 + % ctrl / OVSAHO Cell Viability (30 μM) % CD133 + % ctrl: CD133+ cells; for OVSAHO Cell Viability (50 μM) Total Cell % ctrl / OVSAHO Cell Viability (30 μM) Total Cell % ctrl: total cells
ALDH1A1 = molecular target: T2, ALDH1A1 (Homo sapiens, UniProt P00352); test: Inhibition of ALDH isoenzymes (NAD(P)H formation at 340 nm, purified recombinant enzyme); format: biochemical; conditions: for remaining activity at 20 µM: compound at 20 μM, read-out: ALDH1A1 % Control at 20 μM
T2 sequence (P00352 1-501): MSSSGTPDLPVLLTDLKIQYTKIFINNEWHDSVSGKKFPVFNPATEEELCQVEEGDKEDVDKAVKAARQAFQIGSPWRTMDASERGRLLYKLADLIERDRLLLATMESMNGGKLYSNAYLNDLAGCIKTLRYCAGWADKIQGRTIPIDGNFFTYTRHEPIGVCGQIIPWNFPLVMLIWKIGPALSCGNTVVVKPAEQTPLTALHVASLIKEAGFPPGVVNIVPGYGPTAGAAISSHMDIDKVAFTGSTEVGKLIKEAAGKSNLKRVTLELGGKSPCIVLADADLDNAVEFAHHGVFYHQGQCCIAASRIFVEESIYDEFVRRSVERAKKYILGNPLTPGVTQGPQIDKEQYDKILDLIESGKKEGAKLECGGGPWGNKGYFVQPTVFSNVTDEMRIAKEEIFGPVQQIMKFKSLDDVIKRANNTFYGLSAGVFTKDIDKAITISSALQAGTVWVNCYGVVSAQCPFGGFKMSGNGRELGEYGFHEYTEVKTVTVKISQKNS

ALDH1A2 = molecular target: T3, ALDH1A2 (Homo sapiens, UniProt O94788); test: as above; format: biochemical; conditions: for remaining activity at 20 µM: compound at 20 μM, read-out: ALDH1A2 % Control at 20 μM
T3 sequence (O94788 1-518): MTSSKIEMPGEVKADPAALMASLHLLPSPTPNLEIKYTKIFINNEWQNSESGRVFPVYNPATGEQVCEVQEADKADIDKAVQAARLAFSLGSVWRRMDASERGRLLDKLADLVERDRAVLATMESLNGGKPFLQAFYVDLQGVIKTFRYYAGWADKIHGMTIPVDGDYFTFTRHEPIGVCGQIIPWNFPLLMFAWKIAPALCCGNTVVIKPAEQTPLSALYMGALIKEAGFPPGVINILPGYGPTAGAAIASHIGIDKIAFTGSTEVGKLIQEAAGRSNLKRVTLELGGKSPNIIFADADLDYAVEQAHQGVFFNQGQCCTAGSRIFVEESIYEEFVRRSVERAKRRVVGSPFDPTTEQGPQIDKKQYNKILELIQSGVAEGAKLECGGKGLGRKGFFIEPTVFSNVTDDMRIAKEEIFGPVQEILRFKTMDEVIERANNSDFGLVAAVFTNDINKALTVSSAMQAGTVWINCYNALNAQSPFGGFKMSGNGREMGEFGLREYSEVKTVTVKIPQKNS

[1] = 100-200 nM enzyme, 200 μM NAD+, 100 μM propionaldehyde, pH 7.5, 25° C.

Row | Structure (SMILES) | remaining activity at 20 µM (ALDH2) | OVSAHO Cell Viability (50 μM) % CD133 + % ctrl (OVSAHO) | OVSAHO Cell Viability (50 μM) Total Cell % ctrl (OVSAHO) | further results
1 | Cn1cc2c(=O)n(-c3ccccc3)c(SCc3cccc(F)c3)nc2n1 [Example 13, 6-((3-fluorobenzyl)thio)-2-methyl-5-phenyl-2H-pyrazolo[3,4-d]pyrimidin-4(5H)-one] |  | 83 % ctrl | 69 % ctrl | 
2 | Cn1c(SCc2cccc(F)c2)nc2c(cnn2C)c1=O [Example 37, 6-((3-fluorobenzyl)thio)-1,5-dimethyl-1H-pyrazolo[3,4-d]pyrimidin-4(5H)-one] |  | 88 % ctrl | 7 % ctrl | 
3 | Cn1ncc2c(=O)n(Cc3ccccc3)c(SCc3cccc(F)c3)nc21 [Example 36, 5-benzyl-6-((3-fluorobenzyl)thio)-1-methyl-1H-pyrazolo[3,4-d]pyrimidin-4(5H)-one] |  | 5 % ctrl | 12 % ctrl | ALDH2 inhibition at 20 μM (N.I.) (ALDH2): N.I.
4 | Cc1ccccc1-n1c(SCc2cccc(F)c2)nc2c(cnn2C)c1=O [Example 3, 6-((3-fluorobenzyl)thio)-1-methyl-5-(o-tolyl)-1H-pyrazolo[3,4-d]pyrimidin-4(5H)-one] |  |  |  | IC50 (ALDH1A2; [1]): > 20 µM
5 | Cn1ncc2c(=O)n(-c3cccnc3)c(SCc3cccc(F)c3)nc21 [Example 31, 6-((3-fluorobenzyl)thio)-1-methyl-5-(pyridin-3-yl)-1H-pyrazolo[3,4-d]pyrimidin-4(5H)-one] |  | 81 % ctrl | 79 % ctrl | 
6 | Cc1ccccc1-n1c(SCc2cccc(F)c2)nc2c(cnn2CC2COC2)c1=O [Example 11, 6-((3-fluorobenzyl)thio)-1-(oxetan-3-ylmethyl)-5-(o-tolyl)-1H-pyrazolo[3,4-d]pyrimidin-4(5H)-one] |  | 69 % ctrl | 30 % ctrl | 
7 | Cc1ccccc1-n1c(SCc2cccc(F)c2)nc2c(cnn2C2COC2)c1=O [Example 9, 6-((3-fluorobenzyl)thio)-1-(oxetan-3-yl)-5-(o-tolyl)-1H-pyrazolo[3,4-d]pyrimidin-4(5H)-one] |  | 50 % ctrl | 22 % ctrl | remaining activity at 20 µM (ALDH1A2): 31%
8 | Cn1ncc2c(=O)n(-c3ccccn3)c(SCc3cccc(F)c3)nc21 [Example 34, 6-((3-fluorobenzyl)thio)-1-methyl-5-(pyridin-2-yl)-1H-pyrazolo[3,4-d]pyrimidin-4(5H)-one] |  | 81 % ctrl | 77 % ctrl | 
9 | Cn1ncc2c(=O)n(-c3ccccc3)c(SCc3cccc(F)c3)nc21 [Example 27, 6-((3-fluorobenzyl)thio)-1-methyl-5-phenyl-1H-pyrazolo[3,4-d]pyrimidin-4(5H)-one] |  |  |  | ALDH2 inhibition at 20 μM (N.I.) (ALDH2): N.I.
10 | Cn1ncc2c(=O)n(-c3ccncc3)c(SCc3cccc(F)c3)nc21 [Example 32, 6-((3-fluorobenzyl)thio)-1-methyl-5-(pyridin-4-yl)-1H-pyrazolo[3,4-d]pyrimidin-4(5H)-one] |  | 75 % ctrl | 66 % ctrl | IC50 (ALDH1A1; [1]): 5.2 µM
11 | O=c1c2cn[nH]c2nc(SCc2cccc(F)c2)n1-c1ccccc1 [Example 2, 6-((3-fluorobenzyl)thio)-5-phenyl-1H-pyrazolo[3,4-d]pyrimidin-4(5H)-one] |  | 58 % ctrl | 39 % ctrl | 

Now from value to compound, other results behind:

Row | remaining activity at 20 µM (ALDH2) | Structure (SMILES) | OVSAHO Cell Viability (50 μM) % CD133 + % ctrl (OVSAHO) | OVSAHO Cell Viability (50 μM) Total Cell % ctrl (OVSAHO) | further results
12 | 153% | Cn1ncc2c(=O)n(-c3ccc(Cl)cc3)c(SCc3cccc(F)c3)nc21 [Example 43, 5-(4-chlorophenyl)-6-((3-fluorobenzyl)thio)-1-methyl-1H-pyrazolo[3,4-d]pyrimidin-4(5H)-one] |  |  | 
13 | 100% | CC(Sc1nc2nn(CC3COC3)cc2c(=O)n1-c1ccccc1)c1ccccc1 (stereo not shown) [Example 64, 2-(oxetan-3-ylmethyl)-5-phenyl-6-((1-phenylethyl)thio)-2H-pyrazolo[3,4-d]pyrimidin-4(5H)-one] |  |  | 
14 | 137% | Cn1ncc2c(=O)n(-c3cccc(Cl)c3)c(SCc3cccc(F)c3)nc21 [Example 42, 5-(3-chlorophenyl)-6-((3-fluorobenzyl)thio)-1-methyl-1H-pyrazolo[3,4-d]pyrimidin-4(5H)-one] |  |  | 
15 | 91% | CC(Sc1nc2c(cnn2C)c(=O)n1-c1ccccc1)c1cccc(O)c1 (stereo not shown) [Example 78, 6-((1-(3-hydroxyphenyl)ethyl)thio)-1-methyl-5-phenyl-1H-pyrazolo[3,4-d]pyrimidin-4(5H)-one] |  |  | remaining activity at 20 µM (ALDH1A1): 4%; remaining activity at 20 µM (ALDH1A2): 0%
16 | 92% | Cn1ncc2c(=O)n(-c3ccccc3)c(CSc3cccc(F)c3)nc21 [Example 51, 6-(((3-fluorophenyl)thio)methyl)-1-methyl-5-phenyl-1H-pyrazolo[3,4-d]pyrimidin-4(5H)-one] |  |  | remaining activity at 20 µM (ALDH1A1): 25%
17 | 92% | CC(Oc1nc2c(cnn2C)c(=O)n1-c1ccccc1)c1ccccc1 (stereo not shown) [Example 66, 1-methyl-5-phenyl-6-(1-phenylethoxy)-1H-pyrazolo[3,4-d]pyrimidin-4(5H)-one] |  |  | OVSAHO Cell Viability (30 μM) Total Cell % ctrl (OVSAHO): 76% ctrl
18 | 100% | C[C@@H](Sc1nc2c(cnn2C)c(=O)n1-c1ccccc1)c1ccccc1 [Example 65, (R)-1-methyl-5-phenyl-6-((1-phenylethyl)thio)-1H-pyrazolo[3,4-d]pyrimidin-4(5H)-one] |  |  | OVSAHO Cell Viability (30 μM) % CD133 + % ctrl (OVSAHO): 117% ctrl; OVSAHO Cell Viability (30 μM) Total Cell % ctrl (OVSAHO): 75% ctrl
19 | 110% | Cn1ncc2c(=O)n(-c3ccccc3)c(/C=C/c3cccc(F)c3)nc21 [Example 47, (E)-6-(3-fluorostyryl)-1-methyl-5-phenyl-1H-pyrazolo[3,4-d]pyrimidin-4(5H)-one] |  |  | remaining activity at 20 µM (ALDH1A1): 28%; remaining activity at 20 µM (ALDH1A2): 15%
20 | 91% | Cn1ncc2c(=O)n(-c3ccccc3)c(OCc3cccc(F)c3)nc21 [Example 60, 6-((3-fluorobenzyl)oxy)-1-methyl-5-phenyl-1H-pyrazolo[3,4-d]pyrimidin-4(5H)-one] |  |  | OVSAHO Cell Viability (30 μM) % CD133 + % ctrl (OVSAHO): 76% ctrl; OVSAHO Cell Viability (30 μM) Total Cell % ctrl (OVSAHO): 35% ctrl
21 | 107% | CC(Sc1nc2c(cnn2C)c(=O)n1-c1ccccc1)c1ccccc1 (racemic) [Example 61, 1-methyl-5-phenyl-6-((1-phenylethyl)thio)-1H-pyrazolo[3,4-d]pyrimidin-4(5H)-one] |  |  | OVSAHO Cell Viability (30 μM) % CD133 + % ctrl (OVSAHO): 88% ctrl; OVSAHO Cell Viability (30 μM) Total Cell % ctrl (OVSAHO): 7% ctrl
22 | 89% | Cn1ncc2c(=O)n(-c3ccccc3)c(CNc3cccc(F)c3)nc21 [Example 49, 6-(((3-fluorophenyl)amino)methyl)-1-methyl-5-phenyl-1H-pyrazolo[3,4-d]pyrimidin-4(5H)-one] |  |  | 
23 | 103% | CN(Cc1nc2c(cnn2C)c(=O)n1-c1ccccc1)c1cccc(F)c1 [Example 62, 6-(((3-fluorophenyl)(methyl)amino)methyl)-1-methyl-5-phenyl-1H-pyrazolo[3,4-d]pyrimidin-4(5H)-one] |  |  | OVSAHO Cell Viability (30 μM) % CD133 + % ctrl (OVSAHO): 96% ctrl; OVSAHO Cell Viability (30 μM) Total Cell % ctrl (OVSAHO): 65% ctrl
